Twelve substances from patent publication US9089539B2 (Indiana University Research and Technology Corporation, priority 2008, dated 2015) can be followed below.

Data set [1] in a line: Cleavage of dipeptide-extended prodrugs on incubation in PBS (HPLC/MS). The conditions noted are these: buffer. It is filed as physicochemical. The procedure: Preliminary analyses were performed with these crude peptides to get an approximation of their relative conversion rates in Phosphate Buffered Saline (PBS) buffer (pH, 7.2) using high performance liquid chromatography (HPLC) and MALDI analysis. The crude peptide samples were dissolved in the PBS buffer at a concentration of 1 mg/ml. 1 ml of the resulting solution was stored in a 1.5 ml HPLC vial which was then sealed and incubated at 37° C. Aliquots of 100 μl were drawn out at various time intervals, cooled to room temperature and analyzed by HPLC.
HPLC analyses were performed on a 150 mm×4.6 mm C18 Vydac column. The flow rate was 1 ml/min. […] A linear gradient was employed (40% to 70% B in 15 minutes).
Each N-terminally extended peptide was incubated in PBS buffer at 37° C. for approximately a week. Alternatively, each peptide was heated for 120 min at 100° C. to accelerate the amide bond cleavage. Cleavage of the prodrugs was analyzed by reverse phase HPLC and MS.
To explore the possible formation of 2,5-diketopiperazine (DKP) or 2,5-diketomorpholine (DMP) and the simultaneous generation of HO-F^7,GLP(8-36)-CEX, the prodrug was incubated in PBS buffer at 37° C. for approximately a week. The peptide was also heated at 100° C. to determine the susceptibility to cleavage (Table 4).

In data set [2] the target is T1, GLP-1 receptor (Homo sapiens, UniProt P43220).
T1 construct: expressed in transfected cells; host or cells: HEK293
The data set can be described thus: Luciferase-based reporter gene assay for cAMP detection, GLP-1 receptor. The class given is cell-based.

Data set [3] has as its system blood glucose. The data set can be described thus: Glucose challenge in DIO mice after intraperitoneal peptide injection (Examples 5-7). The class given is in vivo. The conditions noted are these: 2 nmol/kg. On the procedure:
Six groups of diabetes-induced obesity (DIO) mice (eight mice per group) having an initial average body weight of 49.5 g were intraperitoneally injected with 2 nmol/kg of a PBS vehicle control or one of Peptides A-E described below:
Fifteen minutes after injection with one of the compounds or with vehicle control (at time point 0), a 25% (w/v) glucose saline solution was injected at a dose of 1.5 g per kg of body weight. Blood glucose concentrations of the mice were measured at the time of injection of the compound or vehicle control, at the time of glucose injection, and at 15, 30, 60, and 120 minutes after glucose injection.
Blood glucose levels of the mice were measured as described in Example 5.

In data set [4] the test system is blood glucose. Put plainly: Glucose challenge in DIO mice after pegylated peptide injection (Example 8). It is filed as in vivo. The conditions noted are these: 15 or 70 nmol/kg, glucose injected sixty minutes after peptide. The procedure:
(§1) Nine groups of diabetes-induced obesity (DIO) mice (8 mice per group) having an initial average body weight of 56 g were intraperitoneally injected once and followed for one week with 15 or 70 nmol/kg of Peptides Y, Z, F-Peg, and G-Peg described below or PBS vehicle control.
Sixty minutes after injection with one of the peptides or with vehicle control (at time point 0), a 25% (w/v) glucose saline solution was injected at a dose of 1.5 g per kg of body weight. Blood glucose concentrations of the mice were measured at the time of injection of the peptide or vehicle control (at time point −60), at the time of glucose injection (at time point 0), and at 15, 30, 60, and 120 minutes after glucose injection.

The nature of data set [5]: Body weight and food intake of DIO mice over one week (Example 8). It is filed as in vivo. To be noted: 15 or 70 nmol/kg; for total food intake: seven days after injection. The procedure: as §1
The body weight of each mouse of each group was measured on 1, 3, 5, and 7 days after injection with the vehicle control or peptide. Total change in body weight was calculated by subtracting the average body weight of a group at the time of injection with vehicle or peptide from the average body weight of the group seven days after injection. Food intake by each group of mice was measured during the course of the week as well. Total food intake was measured seven days after injection with vehicle control or peptide. […] The Ser11 substitution or the des-amino His7 reduces total efficacy.

Bridges are numbered along the chain shown (N, C = ends). Where no end group is shown, it is not given here. Side-chain parts run from the residue outwards. [ ]: non-standard residue; d: D form. The star is where a group is joined. Desaminohistidyl = O=C(CCc1c[nH]cn1)*; PLA = phenyl lactic acid; Aib = CC(C)(N)C(=O)O

T1 sequence (P43220 24-463, species assumed): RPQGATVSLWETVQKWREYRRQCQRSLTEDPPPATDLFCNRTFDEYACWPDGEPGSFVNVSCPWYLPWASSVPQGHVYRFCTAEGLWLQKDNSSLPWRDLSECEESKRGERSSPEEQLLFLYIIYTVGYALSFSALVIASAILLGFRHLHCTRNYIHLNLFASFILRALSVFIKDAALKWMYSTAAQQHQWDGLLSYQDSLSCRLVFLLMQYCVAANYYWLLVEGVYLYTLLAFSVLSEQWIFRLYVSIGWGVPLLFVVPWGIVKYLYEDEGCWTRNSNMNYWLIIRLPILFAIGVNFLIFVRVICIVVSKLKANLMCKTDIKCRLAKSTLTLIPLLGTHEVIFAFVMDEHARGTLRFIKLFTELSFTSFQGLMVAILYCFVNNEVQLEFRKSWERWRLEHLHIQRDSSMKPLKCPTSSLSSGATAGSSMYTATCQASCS

On to “2 (FTSEYSKYLDERRAQDFVQWLMNTGPSSGAPPPS; lactam 7-11) [Peptide 2]”, for which the t1/2 result in data set [1] is listed as “HO-Phe-dVal (t1/2 = 50.5 hrs)”.

Consider “F^7,GLP(8-37): aa 7-37 of GLP-1 with the His at position 7 replaced with Phe (FAEGTFTSDVSSYLEGQAAKEFIAWLVKGRG; Glucagon-like peptide 1(7-37); UniProt P01275 98-128, looked up, variant H7F)”, for which, in data set [2] (relative to native GLP), the “potency of native GLP-1” value is on record as 10%.

In the case of “HAEGTFTSDVSSYLEGQAAKEFIAWLVKGRGKRNRNNIA (listed as Homo sapiens) [GLP-oxyntomodulin]”, the “potency relative to native GLP-1” value in data set [2] was “at least as potent as the native GLP-1 peptide”.

For “H^7AEGTFTSDVSSYLEGQAAKEFIAWLVKGXPSSGAPPPS-amide [GLP(7-36)-CEX amide]”, the “potency relative to native GLP-1” value in data set [2] is recorded as “approximately ten times more potent in vitro than the native GLP-1 sequence”.

On to “Peptide A: prodrug of Peptide B, d-Phe-dPhe attached via the O-terminus; SEQ ID NO: 645 ({dF-dF-PLA}-[Aib]EGTFTSDVSSYLEEQAAKEFIAWLVKGRPSSGAPPPS-NH2; also: dF-PLA joined by ester bond)”, for which the “blood glucose of prodrug form versus corresponding non-prodrug form” value in data set [3] is recorded as “higher than the blood glucose levels of mice injected with the corresponding non-prodrug forms of the peptides”.

Turning to “Peptide C: prodrug of Peptide B, d-Phe-d-Val attached via the O-terminus; SEQ ID NO: 647 ({dF-dV-PLA}-[Aib]EGTFTSDVSSYLEEQAAKEFIAWLVKGRPSSGAPPPS-NH2; also: dV-PLA joined by ester bond)”, in data set [3], the “blood glucose of prodrug form versus corresponding non-prodrug form” value is “higher than the blood glucose levels of mice injected with the corresponding non-prodrug forms of the peptides”.

Turning to “Peptide E: prodrug of Peptide D, d-Phe-d-Val ester on Ser at position 11; SEQ ID NO: 649 (H[Aib]EGS([dV-dF])FTSDVSSYLEEQAAKEFIAWLVKGRPSSGAPPPS-NH2; N-terminus assumed; SMILES CC[C@H](C)[C@H](NC(=O)[C@H](Cc1ccccc1)NC(=O)[C@H](CCC(=O)O)NC(=O)[C@H](CCCCN)NC(=O)[C@H](C)NC(=O)[C@H](C)NC(=O)[C@H](CCC(N)=O)NC(=O)[C@H](CCC(=O)O)NC(=O)[C@H](CCC(=O)O)NC(=O)[C@H](CC(C)C)NC(=O)[C@H](Cc1ccc(O)cc1)NC(=O)[C@H](CO)NC(=O)[C@H](CO)NC(=O)[C@@H](NC(=O)[C@H](CC(=O)O)NC(=O)[C@H](CO)NC(=O)[C@@H](NC(=O)[C@H](Cc1ccccc1)NC(=O)[C@H](COC(=O)[C@H](NC(=O)[C@H](N)Cc1ccccc1)C(C)C)NC(=O)CNC(=O)[C@H](CCC(=O)O)NC(=O)C(C)(C)NC(=O)[C@@H](N)Cc1c[nH]cn1)[C@@H](C)O)C(C)C)C(=O)N[C@@H](C)C(=O)N[C@@H](Cc1c[nH]c2ccccc12)C(=O)N[C@@H](CC(C)C)C(=O)N[C@H](C(=O)N[C@@H](CCCCN)C(=O)NCC(=O)N[C@@H](CCCNC(=N)N)C(=O)N1CCC[C@H]1C(=O)N[C@@H](CO)C(=O)N[C@@H](CO)C(=O)NCC(=O)N[C@@H](C)C(=O)N1CCC[C@H]1C(=O)N1CCC[C@H]1C(=O)N1CCC[C@H]1C(=O)N[C@@H](CO)C(N)=O)C(C)C)”, in data set [3], the “blood glucose of prodrug form versus corresponding non-prodrug form” value was “higher than the blood glucose levels of mice injected with the corresponding non-prodrug forms of the peptides”.

On to “Peptide F-Peg: Peptide F sequence with Cys at 30 linked to a 40 kDa PEG; SEQ ID NO: 655 ([Desaminohistidyl]SEGTFTSDVSSYLEEQAAKEFIC(PEG 40 kDa)WLVKGRPSSGAPPPS-NH2)”, for which, in data set [4], the “blood glucose concentrations versus vehicle control” value is listed as “less as compared to the blood glucose levels of mice injected with vehicle control”. Also, in data set [5], the “total efficacy over a week study” value is recorded as “comparable” and the total food intake result was “decreased”.

“Peptide G-Peg: pegylated prodrug, d-Phe-d-Val ester on Ser at position 8; SEQ ID NO: 656 ([Desaminohistidyl]S([dV-dF])EGTFTSDVSSYLEEQAAKEFIC(PEG 40 kDa)WLVKGRPSSGAPPPS-NH2)”: the “blood glucose concentrations versus vehicle control” value in data set [4] is recorded as “less as compared to the blood glucose levels of mice injected with vehicle control”. Further, in data set [5], the “total efficacy over a week study” value is given as “comparable” and the total food intake entry is “decreased”.

Turning to “Peptide G: prodrug of Peptide F, d-Phe-dVal ester on Ser at position 2 of Peptide F; SEQ ID NO: 651 ([Desaminohistidyl]S([dV-dF])EGTFTSDVSSYLEEQAAKEFIAWLVKGRPSSGAPPPS-NH2; SMILES CC[C@H](C)[C@H](NC(=O)[C@H](Cc1ccccc1)NC(=O)[C@H](CCC(=O)O)NC(=O)[C@H](CCCCN)NC(=O)[C@H](C)NC(=O)[C@H](C)NC(=O)[C@H](CCC(N)=O)NC(=O)[C@H](CCC(=O)O)NC(=O)[C@H](CCC(=O)O)NC(=O)[C@H](CC(C)C)NC(=O)[C@H](Cc1ccc(O)cc1)NC(=O)[C@H](CO)NC(=O)[C@H](CO)NC(=O)[C@@H](NC(=O)[C@H](CC(=O)O)NC(=O)[C@H](CO)NC(=O)[C@@H](NC(=O)[C@H](Cc1ccccc1)NC(=O)[C@@H](NC(=O)CNC(=O)[C@H](CCC(=O)O)NC(=O)[C@H](COC(=O)[C@H](NC(=O)[C@H](N)Cc1ccccc1)C(C)C)NC(=O)CCc1c[nH]cn1)[C@@H](C)O)[C@@H](C)O)C(C)C)C(=O)N[C@@H](C)C(=O)N[C@@H](Cc1c[nH]c2ccccc12)C(=O)N[C@@H](CC(C)C)C(=O)N[C@H](C(=O)N[C@@H](CCCCN)C(=O)NCC(=O)N[C@@H](CCCNC(=N)N)C(=O)N1CCC[C@H]1C(=O)N[C@@H](CO)C(=O)N[C@@H](CO)C(=O)NCC(=O)N[C@@H](C)C(=O)N1CCC[C@H]1C(=O)N1CCC[C@H]1C(=O)N1CCC[C@H]1C(=O)N[C@@H](CO)C(N)=O)C(C)C)”, the “blood glucose of prodrug form versus corresponding non-prodrug form” value in data set [3] is “higher than the blood glucose levels of mice injected with its corresponding non-prodrug form”.

“Peptide Y: GLP-1-based peptide with Cys at 30 linked to a 40 kDa PEG; SEQ ID NO: 653 (H[Aib]EGTFTSDVSSYLEEQAAKEFIC(PEG 40 kDa)WLVKGRPSSGAPPPS-NH2)”: the “blood glucose concentrations versus vehicle control” value in data set [4] is recorded as “less as compared to the blood glucose levels of mice injected with vehicle control”. Moreover, the “potency in decreasing appetite and decreasing body weight” value in data set [5] (one week) was “most potent of the four peptides in decreasing appetite and decreasing body weight”. The total food intake result in data set [5] is “decreased”.

For “Peptide Z: pegylated prodrug, d-Phe-d-Val ester on Ser at position 11; SEQ ID NO: 654 (H[Aib]EGS([dV-dF])FTSDVSSYLEEQAAKEFIC(PEG 40 kDa)WLVKGRPSSGAPPPS-NH2)”, the “blood glucose concentrations versus vehicle control” value in data set [4] is reported as “less as compared to the blood glucose levels of mice injected with vehicle control”. Further, in data set [5], the total food intake result is “decreased”.
